Key:
TNBS induced colitis [1] = experiment: Trinitrobenzenesulfonic acid (TNBS) Induced Colitis, mice; assay type: in vivo, Balb/c female mice; conditions: mouse
Source text: In Vivo Model: Trinitrobenzenesulfonic acid (TNBS) Induced Colitis
The TNBS model of experimental colitis (Bobin-Dubigeon, C., Collin, X., Grimaud, N., Robert, J-M., Guillaume Le Baut, G., and Petit, J-Y. Effects of tumour necrosis factor-a synthesis inhibitors on rat trinitrobenzene sulphonic acid-induced chronic colitis. Eur. J. Pharmacology, 431: 103-110, 2001), is characterized by shrinkage of the colon, intraperitoneal serosal adhesions, severe wounding and inflammatory damage, diarrhea, a continuous pattern of mucosal epithelial damage in the distal colon with infiltration of inflammatory cells. These symptomatic signs in the above—mentioned models are similar to what occur in human colitis.
Male Wistar rats (200-250 g) are inoculated with 500 microliters of a solution of 10 to 20 mg of TNBS in 30% ethanol delivered intracolonically via catheter or ball-tipped gavage needle to the 8th cm from the anus. When Balb/c female mice (8-12 weeks of age) were used, the inoculation volume was 50 microliters containing 2-3 mg of TNBS in 30% ethanol delivered intracolonically via catheter or ball-tipped gavage needle to the 4th cm from the anus. During the ensuing 7 days, test animals were administered a preparation of an experimental compound. This material may be administered orally, subcutaenously or intraperitoneally, once or twice daily. […] Among the parameters analyzed were the length of the colon starting from the anus to the top of the cecum, the weight of the colon, the consistency of any stools found within the colon, the presence or absence of intraperitoneal adhesions on the serosal surfacr of the intestin, and the gross macroscopic appearance of the colon. The latter is scored for length and severity of inlfammatory damage using a 10 point score. […]
Histological analyses of tissues consisted of staining paraffin-embedded tissue sections with hematoxylin-eosin dye. Epithelial damage scores were determined as the fraction of the tissue section showing damaged epithelium. Scores were determined as follows: 0=no damage; 1=<⅓ damaged, 2=⅓ to <⅔ damaged, 3=>⅔ damaged. […]

TNBS induced colitis [2] = experiment: Trinitrobenzenesulfonic acid (TNBS) Induced Colitis, rats; assay type: in vivo, Male Wistar rats; conditions: rat
Source text: In Vivo Model: Trinitrobenzenesulfonic acid (TNBS) Induced Colitis The TNBS model of experimental colitis (Bobin-Dubigeon, C., Collin, X., Grimaud, N., Robert, J-M., Guillaume Le Baut, G., and Petit, J-Y. Effects of tumour necrosis factor-a synthesis inhibitors on rat trinitrobenzene sulphonic acid-induced chronic colitis. Eur. J. […] These symptomatic signs in the above—mentioned models are similar to what occur in human colitis. Male Wistar rats (200-250 g) are inoculated with 500 microliters of a solution of 10 to 20 mg of TNBS in 30% ethanol delivered intracolonically via catheter or ball-tipped gavage needle to the 8th cm from the anus. When Balb/c female mice (8-12 weeks of age) were used, the inoculation volume was 50 microliters containing 2-3 mg of TNBS in 30% ethanol delivered intracolonically via catheter or ball-tipped gavage needle to the 4th cm from the anus. During the ensuing 7 days, test animals were administered a preparation of an experimental compound. This material may be administered orally, subcutaenously or intraperitoneally, once or twice daily. At the end of this period, the animals were euthanized and their colons were collected for further analysis. Among the parameters analyzed were the length of the colon starting from the anus to the top of the cecum, the weight of the colon, the consistency of any stools found within the colon, the presence or absence of intraperitoneal adhesions on the serosal surfacr of the intestin, and the gross macroscopic appearance of the colon. […] In rats, the distal colon between the 5th and the 8th centimeter is dissected and placed in 10% neutral buffered formalin for later histological analysis. In mice, the 1st to the 4th cm was collected for histological analyses. For the following parameters—colon length, colon weight, stool consistency and appearance and macroscopic damage—a scoring system was used to describe the changes. The four scores for each animal were added to provide a Total Score. […] For the presence of blood in stool, one point was added to scores <3. […] Histological analyses of tissues consisted of staining paraffin-embedded tissue sections with hematoxylin-eosin dye. Epithelial damage scores were determined as the fraction of the tissue section showing damaged epithelium. […] Statistic analyses for these experiments performed with Graphpad Prism 4.0, using ANOVA, with Dunnets or Bonferroni's multiple comparisons test.

COc1cnn(C)c(=O)c1-c1ccc(C[C@H](NC(=O)c2c(Cl)cccc2Cl)C(=O)O)cc1 [Cpd 17]
% Inhibition of Total Macroscopic Score (TNBS induced colitis [1]; 10 mg/kg sc bid): 21.30%
% Inhibition of Total Macroscopic Score (TNBS induced colitis [1]; 30 mg/kg sc bid): 25.5%
% Inhibition of Total Macroscopic Score (TNBS induced colitis [1]; 60 mg/kg sc bid): −17%
% Inhibition of Epithelial Damage Score (TNBS induced colitis [2]; 10 mg/kg sc bid): −5.822%
% Inhibition of Total Macroscopic Score (TNBS induced colitis [2]; 10 mg/kg sc bid): −1.638%
% Inhibition of Epithelial Damage Score (TNBS induced colitis [2]; 30 mg/kg sc bid): 8.5%
% Inhibition of Total Macroscopic Score (TNBS induced colitis [2]; 30 mg/kg sc bid): −4.117%

— patent US20050192279A1, “Pyridazinones as antagonists of alpha4 integrins” (priority 2004, published 2005)
